Values quoted from earlier work in the CATMoS acute toxicity set (Mansouri et al. 2021).

assay: rat acute oral toxicity; conditions: in vivo

| SMILES | LD50 [mg/kg] |
| --- | --- |
| CCCc1c(OCc2cccn3c(=O)c(CCC(=O)O)cnc23)ccc(C(C)=O)c1O | 4000 |
| CCOc1ccc(C2CC(N(CC)CC)c3ccccc32)cc1 (stereo not drawn) | 860 |
| CCCCOC(=O)CC#N | 4180 |
| CN(C)CCNc1ncnc2ccccc12 | 670 |
| CCC1CC2CC3c4[nH]c5ccc(OC)cc5c4CCN(C2)C13 (stereo not drawn) | 482 |
| CC1(C)C(=O)N(Cl)C(=O)N1Br | 1390 |
| COP(=O)(OC)SCCSC | 20 |
| COC(C)CC(OC)OC (stereo not drawn) | 1480 |
| CCOC(C1=NCCCN1)c1c(Cl)cccc1Cl (stereo not drawn) | 625 |
| COCOC | 6420 |
| O=C=Nc1ccc(Cl)c(C(F)(F)F)c1 | 500 |
| CCN1C=CC(=C2C(=O)c3ccccc3C2=O)C=C1 | 330 |
| C=CC(=C)Cl | 450 |
| C=CCC(N)Cc1ccccc1 (stereo not drawn) | 680 |
| CCCN1C[C@H](CSC)C[C@@H]2c3cccc4[nH]cc(c34)C[C@H]21 | 8.4 |
| Cc1nccnc1SCc1ccco1 | 1000 |
| CCCCCCCCCC=O | 3730 |
| Clc1cc2oc3c(Cl)c(Cl)c(Cl)cc3c2cc1Cl | 0.916 |
| O=C1C=CC(=O)N1c1ccc(Cl)cc1 | 440 |
| ClC1=C(Cl)C2(Cl)C3CC(Cl)(Cl)CC3C1(Cl)C2(Cl)Cl (stereo not drawn) | 500 |
| NCCCCCCC(=O)O | 9000 |
| CCN(CC)c1ccc(N)cc1 | 200 |
| O=C(CS)OCCOC(=O)CS | 330 |
| O=C(O)c1cc(O)cc(C(=O)O)c1 | 11200 |

| SMILES | LD50 [mg/kg] |
| --- | --- |
| CCOP(=S)(SC(C)CC)N(C=O)CC (stereo not drawn) | 95.9 |
| CCCCC(CC)CCC(CC(C)C)OS(=O)(=O)O (stereo not drawn) | 1250 |
| CC12CCC3c4ccc(O)cc4CCC3C1CC[C@@H]2OC(=O)COC(=O)CCCc1ccc(N(CCCl)CCCl)cc1 (stereo partly drawn) | 682 |
| Cc1ccc(NC(=O)CF)cc1 | 7 |
| Cc1ccc(OC(=O)c2ccccc2O)cc1 | 1300 |
| BrCc1cccc(Oc2ccccc2)c1 | 2330 |
| O=C(NCC1CCCCN1)c1cc(OCC(F)(F)F)ccc1OCC(F)(F)F (stereo not drawn) | 1350 |
| C=C1CC[C@H](O)C/C1=C/C=C1\CCC[C@]2(C)[C@@H]([C@H](C)CCCC(C)C)CC[C@@H]12 | 42 |
| COC1(C)CC(c2ccccc2)c2c(c3ccccc3oc2=O)O1 (stereo not drawn) | 4000 |
| FC(F)(F)c1nc2ccc(Cl)cc2[nH]1 | 6.82 |
| COc1ccccc1OC1CCN(CCCC(=O)c2ccc(F)cc2)C1 (stereo not drawn) | 241 |
| CCCCC(CC)COC(C[n+]1ccccc1)c1ccc(Cl)c(Cl)c1 (stereo not drawn) | 250 |
| COP(=O)(NC(=O)CCCCl)SC (stereo not drawn) | 3 |
| O=C(OC1CCC(N2CCCCC2)CC1)C1CCCCC1 (stereo not drawn) | 2500 |
| O=C1CN=C(c2ccccn2)c2cc(Br)ccc2N1 | 1950 |
| O=C1C(=NNc2ccccc2S(=O)(=O)O)C(S(=O)(=O)O)=Cc2cc(S(=O)(=O)O)cc(Nc3nc(Cl)nc(Nc4ccccc4)n3)c21 | 6730 |
| CCCCSP(=O)(N(C)C)N(C)C | 208 |
| O=C(O)c1ccccc1Nc1c(Cl)cc(Cl)c2ccccc12 | 8500 |
| CN(C)C(=O)Nc1cccc(OC(F)(F)C(F)F)c1 | 1260 |
| CC(C)(C)CC1(C)CO1 (stereo not drawn) | 4920 |
| Oc1c(Cl)cc2[nH]c(C(F)(F)F)nc2c1Cl | 58 |
| Nc1nc2cccc(Cl)c2o1 | 410 |
| O=NN1CCCCC1 | 200 |
| CCCC/C=C\CCCCCCO | 11700 |

| SMILES | LD50 [mg/kg] |
| --- | --- |
| CC1(C)NC(=O)NC1=O | 7800 |
| c1ccc2cc(Nc3ccc(Nc4ccc5ccccc5c4)cc3)ccc2c1 | 4500 |
| COCc1ccc(-c2ccc(COC)cc2)cc1 | 1370 |
| CC(C)(SC(=O)N1CCCCC1)c1ccccc1 | 946 |
| CCCOC(=O)c1c[n+](C)c2n(c1=O)C(C)CCC2 (stereo not drawn) | 1810 |
| O=C(CF)NC(=O)Nc1ccccc1 | 25 |
| COc1ccc2c(c1)C(N1CCN(C)CC1)=Cc1ccccc1O2 | 822 |
| Nc1ccc2cc(S(=O)(=O)O)c(/N=N/c3ccc(-c4ccc(/N=N/c5c(S(=O)(=O)O)cc6cc(S(=O)(=O)O)cc(N)c6c5O)cc4)cc3)c(O)c2c1 | 6450 |
| CCC1CN2CCC1CC2C(O)c1ccnc2ccc(OC)cc12 (stereo not drawn) | 369 |
| O=C1C(O)=C(CC=C(Cl)Cl)C(=O)c2ccccc21 | 281 |
| C=C(C)C(=O)OCC(CCCC)CCCCCC (stereo not drawn) | 26000 |
| O=[N+]([O-])C=C1SCCN1Cc1ccccc1 | 1000 |
| Cc1cc2[nH]c(C(F)(F)F)nc2c([N+](=O)[O-])c1C | 67 |
| CCC(CC)COCCC#N | 2460 |
| COP(=O)(OC)SC(C)C | 108 |
| CCCCOC(C)OCCCC | 8790 |
| Nc1ccc(Cc2ccc(N)cc2)cc1 | 517 |
| CN1CCC23CCCCC2C1Cc1ccc(O)cc13 (stereo not drawn) | 350 |
| C=C(CCC)C1C(C=C(C)C)C1(C)C (stereo not drawn) | 2600 |
| CC(C=CC=C(C)C(=O)OC1OC(COC2OC(CO)C(O)C(O)C2O)C(O)C(O)C1O)=CC=CC=C(C)C=CC=C(C)C(=O)OC1OC(COC2OC(CO)C(O)C(O)C2O)C(O)C(O)C1O (stereo not drawn) | 3160 |
| Cc1nc2ccccc2c(=O)n1-c1ccccc1C(=O)O | 1550 |
| COc1ccc(OC)c(C(O)CNC(=O)CN)c1 (stereo not drawn) | 68.8 |
| CC(C)(c1ccccc1)c1ccc(O)cc1 | 1770 |
| COC(=O)C=CC(=O)OC | 2240 |

| SMILES | LD50 [mg/kg] |
| --- | --- |
| CC(CN(C)C)CN1c2ccccc2CCc2ccccc21 (stereo not drawn) | 800 |
| ClC1=C(Cl)C2(Cl)C3C4OC4C(Cl)C3C1(Cl)C2(Cl)Cl (stereo not drawn) | 15 |
| Cc1ncc2cscc2c1O | 1500 |
| CC(C)C(C(=O)OC(C#N)c1ccc(Oc2ccccc2)cc1)c1ccc(Cl)cc1 (stereo not drawn) | 451 |
| CCN(CC)CCOCc1ccc(C)cc1 | 531 |
| C[C@@H]1CC=CC=CC=CC=C[C@H](O[C@@H]2O[C@H](C)[C@@H](O)[C@H](N)[C@@H]2O)C[C@@H]2O[C@](O)(C[C@@H](O)C[C@H]3O[C@@H]3C=CC(=O)O1)C[C@H](O)[C@H]2C(=O)O | 2730 |
| OC(c1ccccc1)(c1ccc(Cl)cc1)C1CCCCN1 (stereo not drawn) | 400 |
| CC=CC(C)OC (stereo not drawn) | 1210 |
| Sc1c(Cl)c(Cl)c(Cl)c(Cl)c1Cl | 11900 |
| C=CCNC(N)=S | 200 |
| C=C(C)C(=O)OCCOC(=O)C(=C)C | 3300 |
| CN1CCC(OC(=O)COc2ccc(Cc3ccc(Cl)cc3)cc2)CC1 | 1900 |
| O[C@@H](c1cc(C(F)(F)F)nc2c(Cl)cc(Cl)cc12)[C@@H]1CCCCN1 | 1130 |
| COP(=S)(Oc1ccc([N+](=O)[O-])cc1)Oc1ccc([N+](=O)[O-])cc1 | 312 |
| S=c1[nH]c2ccccc2s1 | 631 |
| CCOC(C)CO (stereo not drawn) | 7110 |
| CC(=O)OCN(C)N=O | 130 |
| CC(Cc1ccccc1)OC(N)=O (stereo not drawn) | 1100 |
| O=C1C(=NNc2cc([N+](=O)[O-])ccc2O)C(S(=O)(=O)O)=Cc2cc(S(=O)(=O)O)cc(Nc3nc(Cl)nc(Cl)n3)c21 | 9120 |
| CCOC(=O)C1=C(C)NC(C)=C(C(=O)OCC)C1c1ccccc1/C=C/C(=O)OC(C)(C)C | 880 |
| O=C(O)c1ccc2c3c(ccc(C(=O)O)c13)C(=O)OC2=O | 3510 |
| CCC(C)OC(C[n+]1ccccc1)c1ccc(Cl)cc1 (stereo not drawn) | 250 |
| CCCOCN(C(=O)CCl)c1c(C)cccc1OCC | 2100 |
| CN(C)C(=O)c1ccccc1O | 2300 |

| SMILES | LD50 [mg/kg] |
| --- | --- |
| NC1CC1 | 445 |
| COC(=O)C1=C(C)NC(C)=C(C(=O)OC)C1c1ccccc1[N+](=O)[O-] | 1020 |
| CCC(=O)c1ccc(OCC(O)CO)c(OC)c1 (stereo not drawn) | 1640 |
| COCC(C)N(C(=O)CCl)c1c(C)csc1C (stereo not drawn) | 397 |
| CCCCCCOC(=O)C(O)c1ccccc1 (stereo not drawn) | 17000 |
| CCOC(=S)C=Cc1ccc(OC)cc1 | 930 |
| CN1C(=CC=CC2=[N+](C)c3ccccc3C2(C)C)C(C)(C)c2ccccc21 | 18 |
| CN1C(=O)OC(C)(C)C1=O | 2140 |
| Cc1ccc2c(c1)[C@]13CCCC[C@@H]1[C@H](C2)N(C)CC3 | 690 |
| C=Cc1ccncc1 | 100 |
| c1ccc(C2(N3CCCCC3)CCCCC2)cc1 | 135 |
| C=CC(=O)OCC[N+](C)(C)C | 500 |
| N#CC(Cl)CCl (stereo not drawn) | 22 |
| CC(=O)C(Cl)C(=O)OC(C)c1ccccc1 (stereo not drawn) | 880 |
| Cc1cnccc1N | 446 |
| C=C(CCl)CCl | 150 |
| C[C@@H]1CCC[C@H](C)N1CCCC(O)(c1ccccc1)c1ccccn1 (stereo partly drawn) | 251 |
| CCOP(=O)(OCC)Oc1cc(C)oc(=O)c1 | 3.34 |
| CCOC(=O)C1=C(C)NC(C)=C(C(=O)OC)C1c1cccc([N+](=O)[O-])c1 (stereo not drawn) | 15400 |
| CC1(C)C(C=C(Br)Br)C1C(=O)OC(C#N)c1cccc(Oc2ccccc2)c1 (stereo not drawn) | 80 |
| COC(=O)[C@H]1[C@H]2C[C@@H]3c4[nH]c5cc(OC)ccc5c4CCN3C[C@H]2C[C@H](OC)[C@@H]1OC | 182 |
| CCN(CC)C(=O)Cl | 2700 |
| CC(=O)Nc1ccc(-c2ccc(N)cc2)cc1 | 1630 |
| O=C1CC=C(O)N=N1 | 3900 |

| SMILES | LD50 [mg/kg] |
| --- | --- |
| CCOP(=O)(OCC)OC(C)=CC(=O)OC(C)c1ccccc1 (stereo not drawn) | 65 |
| C#CC(O)C=CC (stereo not drawn) | 34 |
| CCCCCCCCCCCCCCCN | 660 |
| OCC1CC2CC1C1CCC(CO)C21 (stereo not drawn) | 2250 |
| O=c1[nH]c2cc(Cl)c(Cl)cc2o1 | 700 |
| O=NN1CCCCCCCC1 | 566 |
| O=C(c1ccc(Cl)cc1)c1ccccc1-c1ncc[nH]1 | 600 |
| CC(=O)NNC(=O)c1ccccn1 | 673 |
| CC(Br)CBr (stereo not drawn) | 741 |
| CC(C)Oc1ccccc1N | 840 |
| O=C(O)C(Cl)CCl (stereo not drawn) | 289 |
| Cc1nc(NCc2ccccc2)c2cc[nH]c2n1 | 80 |
| C1CCN2C[C@@H]3C[C@@H](C[C@H]2C1)N1CCCC[C@@H]31 | 960 |
| O=C1C=CC(=O)N1c1c(F)c(F)c(F)c(N2C(=O)C=CC2=O)c1F | 2100 |
| CC1CS1 (stereo not drawn) | 254 |
| Cc1cc(=O)nc(SCc2ccccc2N(C)C)[nH]1 | 2400 |
| C[N+]12CCC(c3ccccc3)(CC1)C(=O)C2 | 1480 |
| C=CC(=O)OCCCCOC(=O)C=C | 587 |
| COc1cc(C[C@H]2c3cc(OC)c(OC)cc3CCN2C)c(Oc2cc3c(cc2OC)-c2c(OC)c(OC)cc4c2[C@H](C3)N(C)CC4)cc1OC | 1500 |
| C#CCN1C(=O)CN=C(c2ccccc2)c2cc([N+](=O)[O-])ccc21 | 876 |
| CC(C)=C1CC[C@@H](C)CC1=O | 470 |
| Nc1ccncc1 | 32 |
| Clc1ccc(Sc2cc(Cl)c(Cl)cc2Cl)cc1 | 3960 |
